In test [1] the target is human A2a adenosine receptor (Homo sapiens (Human), UniProt P29274). Briefly: A2a receptor affinity radioligand binding assay ([3H] SCH58261). The conditions noted are these: for IC50: membranes from HEK293 or CHO cells expressing human A2a receptor. The method, boiled down:
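Membranes from HEK293 or CHO cells expressing human A2a were preincubated 15–30 min at room temperature with compound, then incubated 60 min at room temperature with [3H]SCH58261 (diluted to 4 nM) in 50 mM Tris pH 7.4, 10 mM MgCl2, 0.005% Tween20. Bound radioactivity was collected by filtration; nonspecific binding defined with 1 μM ZM241385; IC50 from 4-parameter logistic fit.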

Test [2] concerns the target human A2b adenosine receptor (Homo sapiens (Human), UniProt P29275). Put plainly: A2b radioligand filtration binding assay. The conditions noted are these: for IC50: membranes from HEK293 cells expressing human A2b receptor. The essentials: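 Membranes from HEK293 cells expressing human A2b receptor preincubated with compound 15 to 30 min at room temperature, then tritiated proprietary A2b antagonist (diluted to 14 nM before addition) added in PBS pH 7.4 for 60 min at room temperature. Bound radioactivity by filtration and scintillation; non-specific binding with 20 μM NECA; IC50 by 4-parameter logistic fit.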

Chain of human A2a adenosine receptor (P29274 whole entry): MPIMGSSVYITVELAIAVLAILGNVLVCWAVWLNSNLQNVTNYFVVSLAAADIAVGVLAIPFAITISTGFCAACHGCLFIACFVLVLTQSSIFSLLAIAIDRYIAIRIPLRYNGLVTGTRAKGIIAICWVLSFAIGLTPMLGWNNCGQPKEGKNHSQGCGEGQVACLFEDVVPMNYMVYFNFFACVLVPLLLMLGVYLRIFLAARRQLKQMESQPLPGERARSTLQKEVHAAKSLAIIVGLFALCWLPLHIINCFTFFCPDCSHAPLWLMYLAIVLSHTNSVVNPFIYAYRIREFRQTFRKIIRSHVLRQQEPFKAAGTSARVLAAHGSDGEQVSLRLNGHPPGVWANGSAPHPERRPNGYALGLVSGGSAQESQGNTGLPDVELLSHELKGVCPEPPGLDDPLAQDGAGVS
Chain of human A2b adenosine receptor (P29275 whole entry): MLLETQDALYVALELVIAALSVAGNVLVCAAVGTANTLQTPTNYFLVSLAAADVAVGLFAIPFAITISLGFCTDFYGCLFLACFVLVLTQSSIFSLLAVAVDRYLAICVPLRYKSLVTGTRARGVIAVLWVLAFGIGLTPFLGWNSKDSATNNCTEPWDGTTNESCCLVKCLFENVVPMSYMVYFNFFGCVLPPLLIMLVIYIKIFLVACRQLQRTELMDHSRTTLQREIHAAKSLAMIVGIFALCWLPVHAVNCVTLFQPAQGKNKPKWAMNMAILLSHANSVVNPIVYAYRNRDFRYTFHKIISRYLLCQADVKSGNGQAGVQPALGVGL

For `COc1cc2nc(N)n3nc([C@@H]4CCCN(c5cnn(C(C)C(C)(C)O)c5)C4)nc3c2cc1F` (single isomer, unassigned) [Example 13, (R or S)-3-(4-((R)-3-(5-amino-9-fluoro-8-methoxy-[1,2,4]triazolo[1,5-c]quinazolin-2-yl)piperidin-l-yl)-1H-pyrazol-1-yl)-2-methylbutan-2-ol], the IC50 in test [1] turned out to be 0.7 nM; in test [2] it was 72.6 nM.

On to `CCn1cc([C@]2(O)CCC[C@@H](c3nc4c5cc(F)c(OC)cc5nc(N)n4n3)C2)cn1` (single isomer, unassigned) [Example 149, (1S or 1R,3R or 3S)-3-(5-amino-9-fluoro-8-methoxy-[1,2,4]triazolo[1,5-c]quinazolin-2-yl)-1-(1-ethyl-1H-pyrazol-4-yl)cyclohexan-1-ol], for which the IC50 in test [1] came out at 1.8 nM; in test [2], 96.6 nM.

In the case of `Cn1cc(N2CCCC(c3nc4c5cc(F)cc(F)c5nc(N)n4n3)C2)cn1` (single isomer, unassigned) [Example 103, (R or S)-7,9-difluoro-2-(1-(1-methyl-1H-pyrazol-4-yl)piperidin-3-yl)-[1,2,4]triazolo[1,5-c]quinazolin-5-amine], the IC50 in test [1] amounted to 0.5 nM; in test [2], 137 nM.

Take `COc1cc(F)cc2c1nc(N)n1nc(C3CC(F)CN(c4cn(CC(C)(C)O)nc4C)C3)nc21` (single isomer, unassigned) [Example 71, 1-(4-((3S,5R or 3R,5S)-3-(5-amino-9-fluoro-7-methoxy-[1,2,4]fltriazolo[1,5-c]quinazolin-2-yl)-5-fluoropiperidin-1-yl)-3-methyl-1H-pyrazol-1-yl)-2-methylpropan-2-ol]: in test [1], the IC50 was 35.6 nM. Moreover, the “A2B binding % Inh. @ 10000 nM” value in test [2] (@ 10000 nM) stood at 43% Inh.

Take `COc1cc2nc(N)n3nc([C@H]4C[C@@H](C)CN(c5cnn(CC(C)(C)O)c5)C4)nc3c2cc1F` (single isomer, unassigned) [Example 91, 1-(4-((3S,5R or 3R,5S)-3-(5-amino-9-fluoro-8-methoxy-[1,2,4]triazolo[1,5-c]quinazolin-2-yl)-5-methylpiperidin-1-yl)-1H-pyrazol-1-yl)-2-methylpropan-2-ol]: the IC50 was 44.7 nM in test [1] and 4620 nM in test [2].

In the case of `COc1cc2nc(N)n3nc([C@@H]4C[C@H](C)CN(c5cnn(CC(C)(C)O)c5)C4)nc3c2cc1F` (single isomer, unassigned) [Example 90, 1-(4-((3R,5S or 3S,5R)-3-(5-amino-9-fluoro-8-methoxy-[1,2,4]triazolo[1,5-c]quinazolin-2-yl)-5-methylpiperidin-1-yl)-1H-pyrazol-1-yl)-2-methylpropan-2-ol], the IC50 in test [1] was determined as 1.2 nM; in test [2] it was 29 nM.

As to `COc1cc2nc(N)n3nc([C@@H]4CCCN(c5cnn([C@@H]6CC[C@@]6(C)O)c5)C4)nc3c2cc1F` (single isomer, unassigned) [Example 99, (1R or 1S,2R or 2S)-2-(4-((R)-3-(5-amino-9-fluoro-8-methoxy-[1,2,4]triazolo[1,5-c]quinazolin-2-yl)piperidin-1-yl)-1H-pyrazol-1-yl)-1-methylcyclobutan-1-ol], the concentration for half-maximal inhibition (IC50) in test [1] was determined as 4.4 nM; in test [2], 231 nM.

As to `COc1cc2nc(N)n3nc(C4CCC(C)N(c5cnn(C(C)(C)CO)c5)C4)nc3c2cc1F` (single isomer, unassigned) [Example 127, 2-(4-((2R or 2S,5R or 5S)-5-(5-amino-9-fluoro-8-methoxy-[1,2,4]triazolo[1,5-c]quinazolin-2-yl)-2-methylpiperidin-1-yl)-1H-pyrazol-1-yl)-2-methylpropan-1-ol], the IC50 in test [1] worked out at 120 nM; in test [2] it was 1160 nM.

As for `COc1cc2nc(N)n3nc(C4CN(c5cnn(CC(C)(C)O)c5)CCC4C)nc3c2cc1F` (single isomer, unassigned) [Example 66, 1-(4-((3S or 3R,4S or 4R)-3-(5-amino-9-fluoro-8-methoxy-[1,2,4]triazolo[1,5-c]quinazolin-2-yl)-4-methylpiperidin-1-yl)-1H-pyrazol-1-yl)-2-methylpropan-2-ol], the results for the IC50 in test [1] and in test [2] were 0.6 nM and 957 nM, respectively.

Turning to `COc1cc(F)cc2c1nc(N)n1nc(C3CCC(C)N(c4cnn(CC(C)(C)O)c4)C3)nc21` (single isomer, unassigned) [Example 120, 1-(4-((2R or 2S,5S or 5R)-5-(5-amino-9-fluoro-7-methoxy-[1,2,4]triazolo[1,5-c]quinazolin-2-yl)-2-methylpiperidin-1-yl)-1H-pyrazol-1-yl)-2-methylpropan-2-ol], the IC50 amounted to 0.6 nM in test [1] and 7.8 nM in test [2].

On to `Cc1cc2nc(N)n3nc([C@@H]4CC[C@H](C)N(c5cnn(CC(C)(C)O)c5)C4)nc3c2cc1F` [Example 112, 1-(4-((2S,5R)-5-(5-amino-9-fluoro-8-methyl-[1,2,4]triazolo [1,5-c]quinazolin-2-yl)-2-methylpiperidin-1-yl)-1H-pyrazol-1-yl)-2-methylpropan-2-ol], for which the IC50 amounted to 0.4 nM in test [1] and 7.9 nM in test [2].

For `COc1cc(F)cc2c1nc(N)n1nc([C@@H]3CCCN(c4cnn(C(C)(C)CO)c4)C3)nc21` [Example 32, (R)-2-(4-(3-(5-amino-9-fluoro-7-methoxy-[1,2,4]triazolo[1,5-c]quinazolin-2-yl)piperidin-1-yl)-1H-pyrazol-1-yl)-2-methylpropan-1-ol], the figures for the 50% inhibitory concentration (IC50) in test [1] and in test [2] were 0.5 nM and 6.9 nM, respectively.

Consider `COc1cc2nc(N)n3nc([C@@H]4CCCN(c5ncn(CC(C)(C)O)n5)C4)nc3c2cc1F` [Example 1, (R)-1-(3-(3-(5-amino-9-fluoro-8-methoxy-[1,2,4]triazolo[1,5-c]quinazolin-2-yl)piperidin-1-yl)-1H-1,2,4-triazol-1-yl)-2-methylpropan-2-ol], for which the IC50 in test [1] was 7.5 nM; in test [2], 554 nM.

For `COc1cc2nc(N)n3nc(C4CCC(C)N(c5cn(CC(C)(C)O)nc5C)C4)nc3c2cc1F` (single isomer, unassigned) [Example 42, 1-(4-((2S,5R or 2R,5S)-5-(5-amino-9-fluoro-8-methoxy-[1,2,4]triazolo[1,5-c]quinazolin-2-yl)-2-methylpiperidin-1-yl)-3-methyl-1H-pyrazol-1-yl)-2-methylpropan-2-ol], the IC50 in test [1] was determined as 4.3 nM; in test [2], 476 nM.

With `COc1cc(F)cc2c1nc(N)n1nc([C@@H]3CCCN(c4cn(C(C)C(C)(C)O)nc4C)C3)nc21` (single isomer, unassigned) [Example 86, (S or R)-3-(4-((R)-3-(5-amino-9-fluoro-7-methoxy-[1,2,4]triazolo[1,5-c]quinazolin-2-yl)piperidin-1-yl)-3-methyl-1H-pyrazol-1-yl)-2-methylbutan-2-ol], the values for the IC50 in test [1] and in test [2] were 0.3 nM and 165 nM, respectively.

Take `COc1cc2nc(N)n3nc(C4CN(c5cnn(CC(C)(C)O)c5C)CCS4(=O)=O)nc3c2cc1F` (single isomer, unassigned) [Example 145, (S or R)-2-(5-amino-9-fluoro-8-methoxy-[1,2,4]triazolo[1,5-c]quinazolin-2-yl)-4-(1-(2-hydroxy-2-methylpropyl)-5-methyl-1H-pyrazol-4-yl)thiomorpholine 1,1-dioxide]: the “A2A binding % Inh. @ 1000 nM” value in test [1] (@ 1000 nM) came out at 32% Inh. @. For the same molecule, the IC50 in test [2] turned out to be 8050 nM.

`COc1cc(F)cc2c1nc(N)n1nc([C@@H]3CCCN(c4ccc(OC(F)F)nc4)C3)nc21` [Example 33, (R)-2-(1-(6-(difluoromethoxy)pyridin-3-yl)piperidin-3-yl)-9-fluoro-7-methoxy-[1,2,4]triazolo[1,5-c]quinazolin-5-amine]: the IC50 in test [1] stood at 3.6 nM; in test [2] it was 17.5 nM.

Consider `COc1cc2nc(N)n3nc(C4CC(F)CN(c5cnn(C6CCOCC6)c5)C4)nc3c2cc1F` (single isomer, unassigned) [Example 56, 9-fluoro-2-((3R,5S or 3S,5R)-5-fluoro-1-(1-(tetrahydro-2H-pyran-4-yl)-1H-pyrazol-4-yl)piperidin-3-yl)-8-methoxy-[1,2,4]triazolo[1,5-c]quinazolin-5-amine], for which the IC50 was 1.8 nM in test [1] and 846 nM in test [2].

On to `COc1cc2nc(N)n3nc([C@@H]4CCCN(c5cn(CC(C)(C)O)nc5C5CC5)C4)nc3c2cc1F` [Example 21, (R)-1-(4-(3-(5-amino-9-fluoro-8-methoxy-[1,2,4]triazolo[1,5-c]quinazolin-2-yl)piperidin-1-yl)-3-cyclopropyl-1H-pyrazol-1-yl)-2-methylpropan-2-ol], for which the results for the 50% inhibitory concentration (IC50) in test [1] and in test [2] were 0.3 nM and 515 nM, respectively.

For `COc1cc2nc(N)n3nc([C@@H]4CCCN(c5cnn(C(C)C)c5)C4)nc3c2cc1F` [Example 4, (R)-9-fluoro-2-(1-(1-isopropyl-1H-pyrazol-4-yl)piperidin-3-yl)-8-methoxy-[1,2,4]triazolo[1,5-c]quinazolin-5-amine], the half-inhibitory concentration (IC50) in test [1] was 4.6 nM; in test [2], 2.6 nM.

In the case of `COc1cc(F)cc2c1nc(N)n1nc([C@@H]3CCCN(c4cnn(CC5(O)CCC5)c4)C3)nc21` [Example 31, (R)-1-((4-(3-(5-amino-9-fluoro-7-methoxy-[1,2,4]triazolo [1,5-c]quinazolin-2-yl)piperidin-l-yl)-1H-pyrazol-1-yl)methyl)cyclobutan-1-ol], the results for the IC50 in test [1] and in test [2] were 1.7 nM and 94.8 nM, respectively.

Consider `COc1cc(F)cc2c1nc(N)n1nc([C@@H]3CCCN(c4ncn(CC(C)(C)O)n4)C3)nc21` [Example 36, (R)-1-(3-(3-(5-amino-9-fluoro-7-methoxy-[1,2,4]triazolo[1,5-c]quinazolin-2-yl)piperidin-1-yl)-1H-1,2,4-triazol-1-yl)-2-methylpropan-2-ol], for which the figures for the half-inhibitory concentration (IC50) in test [1] and in test [2] were 1.6 nM and 93 nM, respectively.

As a reminder, the IC50 is the concentration that gives 50% inhibition. The low end stands for inhibition by little substance, the high end for a need for much substance.

These data come from patent US11312719B2, “9-substituted amino triazolo quinazoline derivatives as adenosine receptor antagonists, pharmaceutical compositions and their use” (Merck Sharp & Dohme Corp., priority 2018, dated 2022).
